Laboratory results: patent US20250000874A1, “BACTERIAL METABOLITES AND THEIR USE IN REDUCING INFLAMMATION” (LOYOLA UNIVERSITY OF CHICAGO, priority 2023, published 2025)

How the values were obtained:
Mouse macrophages = assay: Metabolites on LPS-stimulated TNFα/IL-6 production, mouse macrophages; format: cell-based; conditions: 10 or 50 μM, 16 hours pre-treatment, 200 ng/mL LPS 3 hours, ELISA
Method: (§1) FIG. 5A-C. Bacteria metabolites (MQ, JE, and NC) reduce expression of pro-inflammatory cytokines. Mouse macrophages cells, (FIG. 5A, FIG. 5B) Human Corneal Epithelial Cells (FIG. 5C) or THP-1 macrophages (FIG. 5D) were pre-treated with either 10 μM (3.5 μg/mL), 50 μM (17 μg/mL) of JE, 10UM (4.9 μg/mL), 50 μM (24 μg/mL) of MQ or combination of both for 16 hours, followed by 200 ng/mL of LPS to Mouse macrophages/THP1 cells, and 100 ng/ml of Flagellum to HCECs for 3 hours. The supernatants were collected and TNFα, IL-6 concentration was measured by ELISA. *, P<0.05, **. P<0.01, ***, P<0.001.
(§2) Next, the metabolites were tested individually to assess their regulatory effects on mouse macrophages and human THP-1 macrophages. Similar to the bacterial <10 kD supernatant fraction, both JE and MQ inhibited LPS-stimulated macrophage production of TNFa and IL-6 (FIG. 5), indicating it suppresses TLR4 agonist-induced production of pro-inflammatory cytokines by macrophages.
(§3) Cell Culture: Multiple macrophage cell lines were used in these experiments. Primary murine BMDMs were differentiated through isolation and treatment with L929 conditioned medium. C57BL/6 macrophages and BMDMs were seeded in complete DMEM (10% FBS+1% Penicillin-Streptomycin) in 24-well plates at concentrations of 5×10^5 and 2.5×10^5, respectively. THP-1 cells were maintained and grown in complete RPMI-1640 medium. Cells were differentiated by stimulating with PMA (100 nM) for three hours at 37° C. with 5% CO-2 until adherent. They were then collected and plated at a density of 2.5×10^5 cells per well in 24-well plates with serum-free RPMI and incubated overnight.

THP-1 macrophages = assay: Metabolites on LPS-stimulated TNFα/IL-6 production, THP-1 macrophages; format: cell-based, human; conditions: for IL-6 expression (FIG. 6): 10 μM JE, 10 μM MQ, 50 μM NC or combinations, 16 hours, 200 ng/ml LPS three hours; for LPS-stimulated macrophage production of IL-6 / LPS-stimulated macrophage production of TNFa: 10 or 50 μM, 16 hours pre-treatment, 200 ng/mL LPS 3 hours, ELISA
Method: as §1
FIG. 6. Bacteria metabolites (MQ, JE, and NC) reduce IL-6 expression. THP-1 macrophages were pre-treated with either 10 μM (3.5 μg/mL) of JE, 10 μM (4.9 μg/mL) of MQ or 50UM of NC or different combinations of all three for 16 hours, followed by 200 ng/ml of LPS for three hours. Supernatants were collected and IL-6 concentration was measured by ELISA. **. P<0.01.
as §2, §3

NLRP3 inflammasome [1] = assay: Metabolites on IL-1β production after LPS priming and ATP, murine macrophages; format: cell-based, mouse; conditions: 10 or 50 μM 16 hours, 200 ng/ml LPS three hours, 5 mM ATP one hour
Method: (§4) FIG. 7A-7B. Bacteria metabolites (MQ and JE) reduce IL-1β expression. Murine macrophages, (FIG. 7A) or THP-1 macrophages (FIG. 7B) were pre-treated with either 10 μM (3.5 μg/mL), 50 μM (17 μg/mL) of JE, 10 μM (4.9 μg/mL), 50 μM (24 μg/mL) of MQ or combination of both for 16 hours. Macrophages were primed with 200 ng/ml of LPS for three hours, followed by inflammasome activation with 5 mM ATP for one hour. Supernatants were collected, IL-1B was measured by ELISA. ***, P<0.001
as §2

NLRP3 inflammasome [2] = assay: Metabolites on IL-1β production after LPS priming and ATP, THP-1 macrophages; format: cell-based, human; conditions: 10 or 50 μM 16 hours, 200 ng/ml LPS three hours, 5 mM ATP one hour
Method: as §4, §2

[3] = tested on: CACO-2 epithelium cells / B6 Macrophages; assay: CACO-2 trans-well system with macrophages in lower well, metabolites JE, MQ, NC; format: cell-based; conditions: for TNFα production by cells in lower chamber: 50 μM in upper well overnight, 200 ng/ml LPS 3 hours; for ability to cross the tight junctions of epithelial cells: 50 μM in upper well on CACO-2 cells, overnight
Method: FIG. 8A-8B. The assessment of the permeability of the differentiated CACO-2 epithelium cells after the treatment of JE, MQ, and NC in trans-well system. (FIG. 8A) CACO-2 cells were seeded in the upper well, and B6 Macrophages were placed into the lower well. 50UM of JE, MQ, NC, or combination of all three was added to CACO-2 cells in the upper well. Samples and controls were incubated overnight at 37° C., 5% CO2, followed by the addition of 200 ng/ml LPS to the upper and lower wells for 3 hours (Left: lower chambers, right: upper chambers). Cell culture supernatants were collected and an ELISA was used to measure TNFα or IL-6 concentrations. (FIG. 8B) FitC-dextrans (4 KDa) were added into the upper chamber simultaneously as the sample tests were added. A high concentration of hydrochloric acid (HCl) as a control was added to the upper chamber to disrupt the tight junctions. FitC-dextran collected from the bottom chamber was measured by a fluorescence spectrometer (excitation, 490 nm; emission, 520 nm). Data shown are representative mean±s.d. (***, p<0.001, **, p<0.01).
As stated before, commensal bacteria are non-invading and the metabolites must be able to cross the epithelium to mediate their functions and our earlier data confirmed <10 kD fraction pertained this ability. Therefore, we used the trans-well system to test if the identified metabolites were able to cross the epithelium. As we did previously, Caco-2 cells were culture for 2 weeks, to allow tight junctions to form. While the lower chamber contained C57BL/6 mouse BMDMs. We then measured the ability for NC, MQ and JE to cross the tight junctions without disrupting the integrity of the tight junctions. We did each separately and combined as well.

Compound	LPS-stimulated macrophage production of IL-6 (Mouse macrophages)	LPS-stimulated macrophage production of TNFa (Mouse macrophages)	IL-6 expression (FIG. 6) (THP-1 macrophages)	LPS-stimulated macrophage production of IL-6 (THP-1 macrophages)	LPS-stimulated macrophage production of TNFa (THP-1 macrophages)	IL-β production stimulated by LPS and ATP (NLRP3 inflammasome [1])	IL-β production stimulated by LPS and ATP (NLRP3 inflammasome [2])	TNFα production by cells in lower chamber [3]	ability to cross the tight junctions of epithelial cells [3]
CC(=O)O[C@@H]1CC[C@H]2[C@H]3CC[C@H]4CC(F)(F)CC[C@]4(C)[C@H]3CC[C@]12C [JE, 3,3-Difluoro-5-alpha-androstan-17-beta-yl acetate]	inhibited	inhibited	reduce	inhibited	inhibited	inhibited	inhibited	suppress	–
CCCCCCCCCCCCCCCC(=O)N[C@@H](C(=O)O)[C@H](C)O [NC, N-Palmitoyl-D-Threonine]	–	–	reduce	–	–	–	–	suppress	can pass through
Prednicarbate [MQ]	inhibited	inhibited	reduce	inhibited	inhibited	inhibited	inhibited	suppress	can pass through
